Tested on: male Swiss albino mice
Assay: Determination of withdrawal symptoms (naloxone-induced jumps and shakes in opioid-dependent mice)
Assay type: in vivo
Method: Pharmacodyn, 1971, 190, pages 213-218 in male Swiss albino mice (weight 20-25 g, Harlan Iberica, S. Feliu de Codinas, Barcelona, Spain).
Opioid dependency is developed in the mice by intraperitoneal administration of the opioid in a suitable dose known to those skilled in the art, e.g. 5 mg/kg/day for 4 consecutive days for morphine. Withdrawal symptoms are then induced by the intravenous administration of a suitable opioid antagonist in a dose known to those skilled in the art, for example, 2 mg/kg naloxone in case of morphine, 30 minutes after the administration of the final dose of the opioid is completed.
In the 30 minute period following the naloxone administration the mice show typical withdrawal symptoms, namely jumps and shakes (of the wet dog shake type), which are counted and registered.
The active substance is administered in combination with the opioid to the mice for 4 consecutive days. After the administration of 2 mg/kg naloxone 30 minutes after the administration of the final dose of the active substance in combination with the opioid has been completed, the mice are closely watched for withdrawal symptoms, namely jumps and shakes (of the wet dog shake type), which are then counted and registered.
The influence of the active substance in combination with an opioid on withdrawal symptoms has been determined as described above.

Row | SMILES | withdrawal symptoms usually associated with the administration of opioids (morphine) (co-administration with morphine, administered amount of the opioid not reduced, mice) | Number of Jumps (morphine 5 mg/kg/day s.c. over 4 days, 2 mg/kg naloxone 30 min after final dose, counted in the following 30 minute period) | Number of shakes (morphine 5 mg/kg/day s.c. over 4 days, 2 mg/kg naloxone 30 min after final dose, wet dog shake type, counted in the following 30 minute period)
1 | CN(C)CCOC(c1ccccc1)c1ccnn1C.O=C(O)CC(O)(CC(=O)O)C(=O)O (racemic) [Example 1, (±)-5-{α-[2-(dimethylamino)ethoxy]benzyl}-1-methyl-1H-pirazole citrate] | significantly reduced |  | 
2 | CN1CC[C@]23c4c5ccc(O)c4O[C@H]2[C@@H](O)C=C[C@H]3[C@H]1C5 [Morphine] |  | 6.6 | 16.3

Reference: patent publication US20080200693A1, “Derivatives of Aryl (or Heteroaryl) Azolylcarbinols (in Particular Cizolirtin Citrate) for the Treatment of Opioid Addiction” (LABORATORIOS DEL DR. ESTEVE S.A., priority 2004, published 2008)
